Experiments:
[1] = tested on: Rat; experiment: concentration in plasma after dosing; conditions: dosed: Isoeugenol, 17 mg/kg, oral, Female, F344/N
[2] = tested on: Rat; experiment: concentration in plasma after dosing; conditions: dosed: Isoeugenol, 17 mg/kg, oral, Female, F344/N; remark: listed apart in the source
[3] = tested on: Rat; experiment: concentration in plasma after dosing; conditions: dosed: Isoeugenol, 17 mg/kg, oral, Male, F344/N
[4] = tested on: Rat; experiment: concentration in plasma after dosing; conditions: 5 min; dosed: Isoeugenol; 17 mg/kg; oral; Male; F344/N
[5] = tested on: Rat; experiment: concentration in plasma after dosing; conditions: dosed: Isoeugenol, 17 mg/kg, oral, Male, F344/N; remark: listed apart in the source
[6] = tested on: Rat; experiment: concentration in plasma after dosing; conditions: dosed: Isoeugenol, 70 mg/kg, oral, Male, F344/N
[7] = tested on: Rat; experiment: concentration in plasma after dosing; conditions: dosed: Isoeugenol, 17 mg/kg, oral, Female, F344/N; remark: listed apart in the source
[8] = tested on: Rat; experiment: concentration in plasma after dosing; conditions: 2 min; dosed: Isoeugenol; 17 mg/kg; oral; Male; F344/N
[9] = tested on: Rat; experiment: concentration in plasma after dosing; conditions: dosed: Isoeugenol, 17 mg/kg, oral, Male, F344/N; remark: listed apart in the source
[10] = tested on: Rat; experiment: concentration in plasma after dosing; conditions: dosed: Isoeugenol, 17 mg/kg, oral, Female, F344/N; remark: listed apart in the source
[11] = tested on: Rat; experiment: concentration in plasma after dosing; conditions: dosed: Isoeugenol, 17 mg/kg, oral, Male, F344/N; remark: listed apart in the source
[12] = tested on: Rat; experiment: concentration in plasma after dosing; conditions: dosed: Isoeugenol, 70 mg/kg, oral, Male, F344/N; remark: listed apart in the source
[13] = tested on: Rat; experiment: concentration in plasma after dosing; conditions: 0.5 h; dosed: Isoeugenol; 70 mg/kg; oral; Male; F344/N
[14] = tested on: Rat; experiment: concentration in plasma after dosing; conditions: dosed: Isoeugenol, 17 mg/kg, oral, Female, F344/N; remark: listed apart in the source
[15] = tested on: Rat; experiment: concentration in plasma after dosing; conditions: dosed: Isoeugenol, 17 mg/kg, oral, Male, F344/N; remark: listed apart in the source
[16] = tested on: Rat; experiment: concentration in plasma after dosing; conditions: dosed: Isoeugenol, 17 mg/kg, oral, Female, F344/N; remark: listed apart in the source
[17] = tested on: Rat; experiment: concentration in plasma after dosing; conditions: 2 h; dosed: Tetralin; 2 mg/kg; iv; Male; F344
[18] = tested on: Rat; experiment: concentration in plasma after dosing; conditions: 2 h; dosed: Tetralin; 2 mg/kg; iv; Male; F344; remark: listed apart in the source
[19] = tested on: Rat; experiment: concentration in plasma after dosing; conditions: 4 h; dosed: Tetralin; 20 mg/kg; iv; Male; F344
[20] = tested on: Rat; experiment: concentration in plasma after dosing; conditions: dosed: Tetralin, 2 mg/kg, iv, Male, Harlan Sprague Dawley
[21] = tested on: Rat; experiment: concentration in plasma after dosing; conditions: dosed: Tetralin, 2 mg/kg, iv, Male, F344
[22] = tested on: Rat; experiment: concentration in plasma after dosing; conditions: dosed: Tetralin, 20 mg/kg, iv, Female, Harlan Sprague Dawley
[23] = tested on: Rat; experiment: concentration in plasma after dosing; conditions: dosed: Tetralin, 20 mg/kg, iv, Female, Harlan Sprague Dawley; remark: listed apart in the source
[24] = tested on: Rat; experiment: concentration in plasma after dosing; conditions: 2 h; dosed: Tetralin; 2 mg/kg; iv; Male; Harlan Sprague Dawley
[25] = tested on: Rat; experiment: concentration in plasma after dosing; conditions: dosed: Tetralin, 2 mg/kg, iv, Male, Harlan Sprague Dawley; remark: listed apart in the source
[26] = tested on: Rat; experiment: concentration in plasma after dosing; conditions: dosed: Tetralin, 2 mg/kg, iv, Male, F344; remark: listed apart in the source
[27] = tested on: Rat; experiment: concentration in plasma after dosing; conditions: 1 h; dosed: Tetralin; 2 mg/kg; iv; Male; Harlan Sprague Dawley
[28] = tested on: Rat; experiment: concentration in plasma after dosing; conditions: dosed: Tetralin, 2 mg/kg, iv, Male, F344; remark: listed apart in the source
[29] = tested on: Rat; experiment: concentration in plasma after dosing; conditions: dosed: Tetralin, 2 mg/kg, iv, Male, Harlan Sprague Dawley; remark: listed apart in the source
[30] = tested on: Rat; experiment: concentration in plasma after dosing; conditions: dosed: Tetralin, 2 mg/kg, iv, Male, F344; remark: listed apart in the source
[31] = tested on: Rat; experiment: concentration in plasma after dosing; conditions: dosed: Tetralin, 2 mg/kg, iv, Male, F344; remark: listed apart in the source
[32] = tested on: Rat; experiment: concentration in plasma after dosing; conditions: dosed: Tetralin, 2 mg/kg, iv, Male, Harlan Sprague Dawley; remark: listed apart in the source
[33] = tested on: Rat; experiment: concentration in plasma after dosing; conditions: dosed: Tetralin, 20 mg/kg, iv, Female, Harlan Sprague Dawley; remark: listed apart in the source
[34] = tested on: rat; experiment: concentration in blood after dosing; conditions: dosed: styrene, 3000 ppm, dermal, duration: 4 hr, male, F344
[35] = tested on: rat; experiment: concentration in blood after dosing; conditions: dosed: styrene, 3000 ppm, dermal, duration: 4 hr, male, F344; remark: listed apart in the source
[36] = tested on: rat; experiment: concentration in blood after dosing; conditions: dosed: styrene, 3000 ppm, dermal, duration: 4 hr, male, F344; remark: listed apart in the source

C/C=C/c1ccc(O)c(OC)c1 [Isoeugenol]
Conditions	concentration in plasma [µg/mL]
[1], 1.5 h	0.0336
[1], 20 min	0.0869
[2], 5 h	0.0283
[2], 10 min	0.43
[3], 1 h	0.0395
[3], 6 h	0.0277
[5], 1.5 h	0.0343
[5], 2 min	0.0383
[6], 2 h	0.0684
[6], 2 min	0.711
[7], 1 h	0.129
[7], 5 h	0.0697
[9], 0.5 h	0.0954
[9], 2 h	0.0302
[10], 2 h	0.0232
[10], 2 min	0.0691
[11], 0.75 h	0.0324
[11], 2 h	0.0779
[12], 5 h	0.106
[12], 5 min	1.02
[14], 0.75 h	0.0403
[14], 6 h	0.0744
[15], 0.75 h	0.057
[15], 8 h	0.0195
[16], 0.5 h	0.243
[16], 8 h	0.018

Conditions	concentration in plasma [µg/mL]
[4]	0.194
[8]	0.0356
[13]	0.469

c1ccc2c(c1)CCCC2 [Tetralin]
Conditions	concentration in plasma [µg/g]
[17]	0.0337
[18]	0.0271
[19]	0.15
[24]	0.0164
[27]	0.0313

Conditions	concentration in plasma [µg/g]
[20], 0.2533 h	0.362
[20], 6 h	0.00512
[21], 1 h	0.0668
[21], 24 h	0.00063
[22], 4 h	0.204
[22], 5 min	20.3
[23], 0.25 h	11.4
[23], 6 h	0.104
[25], 0.75 h	0.0973
[25], 12 h	0.00173
[26], 0.75 h	0.105
[26], 12 h	0.00167
[28], 0.75 h	0.134
[28], 12 h	0.00182
[29], 0.5033 h	0.208
[29], 8 h	0.00401
[30], 0.5033 h	0.216
[30], 8 h	0.00356
[31], 0.505 h	0.246
[31], 8 h	0.00426
[32], 4 h	0.0072
[32], 307 s	1.62
[33], 4 h	0.216
[33], 5 min	22.1

C=Cc1ccccc1 [styrene]
concentration in blood [µg/mL]
Conditions	0.5 h	1 h	2 h	3 h	4 h
[34]	1.55	3.45	4.65	8.18	8.81
[35]	2.86	8.01	4.91	11.3	10.2
[36]	1.87	2.43	5.54	6.07	7.9
